Ends that are not written are not given here.
What was measured:
[1] = Stability of peptide mixtures under long term and accelerated storage (UPLC); type: physicochemical; settings: peptide in mixture of 6 peptides
Experimental: To examine the effect on stability of peptides that contain cystine (oxidized, C (C)) present in a mixture of 6 peptides, two examples of mixtures of both non-cysteine-containing (NCC1-6) and cystine-containing (SEQ ID NO: 1-6) peptides were assessed. Typical chromatograms of the two mixtures are depicted in FIG. 2. Both mixtures were placed on two different storage conditions, ‘long term storage condition’ (i.e. −20±5° C.) and ‘accelerated storage condition’ (i.e. 5±3° C.).
The purity, the level of impurities, and the quantification per peptide of both mixtures are determined by reversed phase rapid UPLC using a mobile phase gradient of ACN/IPA and water with TFA, and UV detection at λ=220 nm. The method quantifies main peaks and impurities in mixtures of peptides. The reporting threshold for the method is 0.10% a/a.
Both mixtures of six peptides were stored under the two conditions described and by using the analytical method as described. The stability was monitored. The quantity of each of the peptides present in the mix (assay values), the purity, and the individual impurities were measured at several timepoints over a period of 3 months. […] Furthermore, focussing on the individual impurities it is shown that no significant degradation has taken place as all levels remain constant and no new impurities have formed.

[2] = system: T cells cultured from PBMC from healthy donors; assay: T cell induction by PRAME-based SLPs, IFNy ELISpot (test 1 and test 2); design: species or system human; key to ELISPOT IFNy / ELISPOT IFNy, summary of the results in the table: − (negative); + (positive); When at least one donor had a positive response, this is denoted as POS; settings: for ELISPOT IFNy: 2 peptide pools
Experimental: The capacity of human-PRAME-based SLPs to activate T cells was studied. The biological activity of the synthesized and purified SLPs was tested using PBMC from healthy donors. Monocytes were isolated using anti-CD14 beads by magnet activated cell sorting (MACS) following the protocol of the supplier (Miltenyi Biotec). In short, PBMCs were isolated by centrifugation over a Ficoll gradient and cryopreserved. To generate dendritic cells (DCs), approximately […] thawed PBMC were used for the isolation of CD14 positive cells. The cells were cultured for three days at 37° C. in 2 ml/well of IMDM 4% human serum (HS) containing 800 U/ml GM-CSF and 500 U/ml IL-4 (Peprotech). After 3 days 1 mL/well of IMDM 4% HS with GM-CSF (2400 U/mL) and IL-4 (1500 U/mL) was added to the monocytes-derived DCs and these adhered cells were cultured for an additional 3 days. On day 6, long peptides distributed over 2 pools were added to monocyte-derived DCs of naive donors at a 13 μM concentration and incubated overnight at 37° C. The next day (day 7) peptide-loaded DCs were harvested, irradiated (1000 rad), washed and mixed in a 1:10 ratio with autologous PBMC in IMDM 8% human serum in the presence of IL-7 (10 ng/ml) and IL-12p70 (100 μg/mL).
On day 10 new DCs were generated and loaded, after 6 days, with SLPs on day 16 as described above. The next day, these peptide-loaded DCs were harvested, irradiated (1000 rad) and washed. Also the cultured T cells were harvested. Both were counted and mixed in a 1:10 ratio (DC:T) in IMDM 8% human serum in the presence of IL-7 (10 ng/ml) and IL-12p70 (100 μg/mL) for the first restimulation. On the same day, new DCs were generated as described above that were loaded with SLPs on day 23 as described above. The next day, peptide-loaded DCs were harvested, irradiated (1000 rad) and washed. Also the cultured and restimulated T cells were harvested. Both were counted and mixed in a 1:10 ratio (DC:T) in IMDM 8% human serum in the presence of IL-7 (10 ng/ml) and IL-12p70 (100 μg/mL) for the second restimulation.
On this day 24, also test 1 was started in which DCs loaded with individual SLPs were cultured with harvested T cells from restimulation 1. For test 1, DCs and harvested T cells were cultured in a 1:10 ratio for 2 days after which cells were transferred to a coated ELISpot plate (see description below). On day 24, new DCs were generated as described above that were loaded with SLPs on day 30 as described above. The next day, peptide-loaded DCs were harvested, irradiated (1000 rad) and washed. Also the cultured twice restimulated T cells were harvested. Both were counted and mixed in a 1:10 ratio (DC:T) in IMDM 8% human serum in the presence of IL-2 (30 IU/mL) and IL-12p70 (100 μg/mL) for the third restimulation.
On day 31, also test 2 was started in which DCs loaded with individual SLPs were cultured with harvested T cells from restimulation 2. For test 2, DCs and harvested T cells were cultured in a 1:10 ratio for 2 days after which cells were transferred to a coated ELISpot plate (see description below).
The T cell cultures were restimulated three times in 1-week cycles using peptide loaded autologous moDCs. After the 2nd and 3rd restimulation, reactivity towards single SLPs was tested (test 1 and test 2, respectively). Reactivity was determined by measuring IFNy production using ELISpot.
For ELISpot analysis, multiscreen plates were coated with an IFNy coating antibody overnight at 4° C. The next day, the plate was washed 4× with PBS and blocking was done using IMDM 8% HS at 37° C. for at least one hour. Each sample was tested in triplicate. As a positive control, phytoheamagglutinin (PHA, 1 μg/mL) was added to cells that were not stimulated with SLP after thawing. The plate was cultured overnight at 37° C. Thereafter, cells were discarded and the plate was washed using PBS/0.05% Tween-20. The IFNy detection antibody was diluted and added to each well and incubated for 2 hours at room temperature. […]

Row | Sequence | Assay (net peptide content) (mg/vial) ([1]; Initial) | Assay (net peptide content) (mg/vial) ([1]; Storage at 5 ± 3° C., T1M) | Assay (net peptide content) (mg/vial) ([1]; Storage at 5 ± 3° C., T2M) | Assay (net peptide content) (mg/vial) ([1]; Storage at 5 ± 3° C., T3M) | Assay (net peptide content) (mg/vial) ([1]; Storage at −20 ± 5° C., T2M) | Assay (net peptide content) (mg/vial) ([1]; Storage at −20 ± 5° C., T3M) | ELISPOT IFNy ([2]; donor BC290, Test 1) | ELISPOT IFNy ([2]; donor BC290, Test 2) | ELISPOT IFNy ([2]; donor BC298, Test 1) | ELISPOT IFNy ([2]; donor BC298, Test 2) | ELISPOT IFNy ([2]; donor BC305, Test 1) | ELISPOT IFNy ([2]; donor BC305, Test 2) | ELISPOT IFNy ([2]; donor BC306, Test 1) | ELISPOT IFNy ([2]; donor BC306, Test 2) | ELISPOT IFNy ([2]; donor BC312, Test 1) | ELISPOT IFNy ([2]; donor BC312, Test 2) | ELISPOT IFNy ([2]; donor BC315, Test 1) | ELISPOT IFNy ([2]; donor BC315, Test 2) | ELISPOT IFNy ([2]; donor BC321, Test 1) | ELISPOT IFNy ([2]; donor BC321, Test 2) | other results
1 | VVNHYFQTRHYLHTLWKAGILYKRETTRSASFCGSPYSW (VVNHYFQTRHYLHTLWKAGILYKRETTRSASFC(Cys)GSPYSW) [SEQ ID 5, HBV Pol fragment SLP with cysteinylated cysteine] | 0.20 mg/vial | 0.20 mg/vial | 0.21 mg/vial | 0.22 mg/vial | 0.20 mg/vial | 0.22 mg/vial |  |  |  |  |  |  |  |  |  |  |  |  |  |  | 
2 | LSAMSTTDLEAYFKDCLFKDWEELG [SEQ ID 2] | 0.24 mg/vial | 0.24 mg/vial | 0.25 mg/vial | 0.25 mg/vial | 0.25 mg/vial | 0.25 mg/vial |  |  |  |  |  |  |  |  |  |  |  |  |  |  | 
3 | YPALMPLYACIQAKQAFTFSPTYKAFLSKQYMNLYPVAR (cysteinylated cysteine) [SEQ ID 6, HBV Pol fragment SLP with cysteinylated cysteine] | 0.21 mg/vial | 0.20 mg/vial | 0.21 mg/vial | 0.22 mg/vial | 0.20 mg/vial | 0.22 mg/vial |  |  |  |  |  |  |  |  |  |  |  |  |  |  | 
4 | LKAMVQAWPFTCLPLGVLMKGQHLHLETFKAVL (LKAMVQAWPFTC(cysteinyl)LPLGVLMKGQHLHLETFKAVL; listed as Homo sapiens) [SEQ ID NO: 38, PRAME-based SLP, cysteinylated form tested] |  |  |  |  |  |  | − | − | + | + | − | − | − | − | − | − | − | − | + | − | ELISPOT IFNy, summary of the results in the table ([2]; Table 5, all donors): POS
5 | VWTSPRRLVELAGQSLLKDEALAIAALELLPRELF (listed as Homo sapiens) [SEQ ID NO: 42, PRAME-based SLP] |  |  |  |  |  |  | − | − | + | + | − | − | − | − | − | − | − | − | + | − | 
6 | PTLAKFSPYLGQMINLRRLLLSHIHASSYISPE (listed as Homo sapiens) [SEQ ID NO: 37, PRAME-based SLP] |  |  |  |  |  |  | + | + | − | − | + | − | − | − | − | − | − | − | − | − | 
